# Reference: PMC6234871 (mBio, 2018)
# How the values were obtained:
# [1] = target: T1, PfHAD2 (HAD2, 6×His-HAD2) (Plasmodium falciparum, UniProt Q8I5F4); experiment: EnzChek phosphate release assay (MESG/PNP coupled); assay type: biochemical; details: 5 mM substrate, 730 nM enzyme, 20 mM MgCl2, 50 mM Tris-HCl pH 8.0; normalised to D26A mutant
# T1 construct: gene PF3D7_1226300; native mass about 33 kDa
# [2] = target: T1, PfHAD2 (HAD2, 6×His-HAD2); experiment: continuous absorbance at […] nm; assay type: biochemical; details: 10 mM pNPP, 1.2 µM enzyme, 5 mM MgCl2, 50 mM Tris-HCl pH 7.5, 37°C
Compound,EnzChek phosphate release assay (MESG/PNP coupled) [1],continuous absorbance at 405 nm [2]
O=P(O)(O)OC(CO)CO [glycerol 2-phosphate],"PfHAD2 is a phosphatase with activity against small phosphosubstrates, such as glc2P",
O=[N+]([O-])c1ccc(OP(=O)(O)O)cc1 [para-nitrophenyl phosphate],,confirmed the phosphatase activity of recombinant PfHAD2 using para-nitrophenyl phosphate (pNPP)
